From patent publication US10945932B2, “Prebiotic oral care compositions containing carboxylic acids” (COLGATE-PALMOLIVE COMPANY, priority 2013, dated 2021)

Key:
Assay type in all cases: cell-based
[1] = tested on: beneficial oral bacteria and pathogenic oral bacteria; experiment: Metabolic activity, prebiotic effect over the whole panel; details: 48 hrs; threshold value of 2
Method: (§1) The extent of metabolic activity of the tested bacteria in the presence of the above-mentioned acids after 24 hours and 48 hours was investigated through a high throughput phenotype microarray system (PM) for microbial cells (Biolog Inc.). Each PM can contain up to 95 different biochemical compounds (e.g. organic acids) that may act as substrates for bacteria as well as one negative control, not containing the substrates. Microarray plates were used in which the different wells of each plate were pre-loaded (by the manufacturer, Biolog Inc.) with different organic acids to be tested. Each bacterial species was tested using a separate microarray plate. Thus, a single bacterial species was tested with a variety of organic acids on each particular plate. The microarrays are based on redox technology, using cell respiration as a universal reporter. […] The observation of this color change indicates which of the substrates improve the metabolic activity and health of the cells.
(§2) Each bacterial species was collected from blood agar plates (incubated for 48 hours anaerobically at 37° C.) and transferred to an IF-0 Base inoculation fluid (Biolog Inc.), which is a nutritionally poor medium. […] A 1:5 dilution of this suspension was prepared by mixing 3 mL of the 42% transmittance cell suspension with 15 mL of an inoculation fluid (which inoculation fluid was formed by mixing 11.6 mL sterile water, 62.5 mL IF-0 base inoculation fluid and 0.9 mL of the tetrazolium dye “Biolog Redox Dye mix D”), resulting in a final cell density which was equal to 85% transmittance using a BioRad SmartSpec 3000 Photometer. For each of the acids tested, the microarray plate (obtained from the supplier (Biolog Inc.) with acid already present in the relevant wells in powder form) was directly inoculated with 100 μL/well of this 85% transmittance cell suspension.
(§3) All plates were incubated in an anaerobic atmosphere at 37° C. Color changes were measured spectrophotometrically at 492 nm (Thermo Scientific Multiskan Ascent) at 24 hrs and 48 hrs using the same plate at both time points.
(§4) The controls were also carried out three times, as above.

[2] = tested on: Aggregatibacter actinomycetemcomitans; experiment: Metabolic activity, Biolog phenotype microarray; details: A actinomycetemcomitans
Method: as §1, §2, §3, §4

[3] = tested on: Actinomyces naeslundii; experiment: Metabolic activity, Biolog phenotype microarray; details: A naeslundii
Method: as §1, §2, §3, §4

[4] = tested on: Tannerella forsythia; experiment: Metabolic activity, Biolog phenotype microarray; details: T forsythia
Method: as §1, §2, §3, §4

[5] = tested on: Streptococcus salivarius; experiment: Metabolic activity, Biolog phenotype microarray; details: S salivarius
Method: as §1, §2, §3, §4

[6] = tested on: Streptococcus mitis; experiment: Metabolic activity, Biolog phenotype microarray; details: S mitis
Method: as §1, §2, §3, §4

[7] = tested on: Porphyromonas gingivalis; experiment: Metabolic activity, Biolog phenotype microarray; details: P gingivalis
Method: as §1, §2, §3, §4

[8] = tested on: Actinomyces viscosus; experiment: Metabolic activity, Biolog phenotype microarray; details: A viscosus
Method: as §1, §2, §3, §4

[9] = tested on: Streptococcus sobrinus; experiment: Metabolic activity, Biolog phenotype microarray; details: S sobrinus
Method: as §1, §2, §3, §4

[10] = tested on: Streptococcus gordonii; experiment: Metabolic activity, Biolog phenotype microarray; details: S gordonii
Method: as §1, §2, §3, §4

[11] = tested on: Veillonella parvula; experiment: Metabolic activity, Biolog phenotype microarray; details: V parvula
Method: as §1, §2, §3, §4

[12] = tested on: Capnocytophaga sputigena; experiment: Metabolic activity, Biolog phenotype microarray; details: C sputigena
Method: as §1, §2, §3, §4

[13] = tested on: Streptococcus sanguinis; experiment: Metabolic activity, Biolog phenotype microarray; details: S sanguinis
Method: as §1, §2, §3, §4

[14] = tested on: Prevotella intermedia; experiment: Metabolic activity, Biolog phenotype microarray; details: P intermedia
Method: as §1, §2, §3, §4

[15] = tested on: Fusobacterium nucleatum; experiment: Metabolic activity, Biolog phenotype microarray; details: F nucleatum
Method: as §1, §2, §3, §4

[16] = tested on: Streptococcus mutans; experiment: Metabolic activity, Biolog phenotype microarray; details: S mutans
Method: as §1, §2, §3, §4

O=C(O)[C@H](O)[C@@H](O)[C@H](O)[C@H](O)CO[C@H]1O[C@H](CO)[C@H](O)[C@H](O)[C@H]1O [Melibionic acid, melibionic acid]
prebiotic effect (metabolic activity) [1]: exhibited prebiotic effects | metabolic activity, OD at 492 nm divided by OD of control (control = 1) ([2]; 24 hrs): 0.9361 | metabolic activity, OD at 492 nm divided by OD of control (control = 1) ([2]; 48 hrs): 0.8912 | metabolic activity, OD at 492 nm divided by OD of control (control = 1) ([3]; 24 hrs): 1.2539 | metabolic activity, OD at 492 nm divided by OD of control (control = 1) ([3]; 48 hrs): 1.3926 | metabolic activity, OD at 492 nm divided by OD of control (control = 1) ([4]; 24 hrs): 1.0848 | metabolic activity, OD at 492 nm divided by OD of control (control = 1) ([4]; 48 hrs): 1.1865 | metabolic activity, OD at 492 nm divided by OD of control (control = 1) ([5]; 24 hrs): 0.9984 | metabolic activity, OD at 492 nm divided by OD of control (control = 1) ([5]; 48 hrs): 0.9237 | metabolic activity, OD at 492 nm divided by OD of control (control = 1) ([6]; 24 hrs): 1.0443 | metabolic activity, OD at 492 nm divided by OD of control (control = 1) ([6]; 48 hrs): 0.9983 | metabolic activity, OD at 492 nm divided by OD of control (control = 1) ([7]; 24 hrs): 0.8689 | metabolic activity, OD at 492 nm divided by OD of control (control = 1) ([7]; 48 hrs): 0.9301 | metabolic activity, OD at 492 nm divided by OD of control (control = 1) ([8]; 24 hrs): 1.6342 | metabolic activity, OD at 492 nm divided by OD of control (control = 1) ([8]; 48 hrs): 2.0904 | metabolic activity, OD at 492 nm divided by OD of control (control = 1) ([9]; 24 hrs): 1.1366 | metabolic activity, OD at 492 nm divided by OD of control (control = 1) ([9]; 48 hrs): 1.1222 | metabolic activity, OD at 492 nm divided by OD of control (control = 1) ([10]; 24 hrs): 1.0326 | metabolic activity, OD at 492 nm divided by OD of control (control = 1) ([10]; 48 hrs): 0.9389 | metabolic activity, OD at 492 nm divided by OD of control (control = 1) ([11]; 24 hrs): 0.8685 | metabolic activity, OD at 492 nm divided by OD of control (control = 1) ([11]; 48 hrs): 0.6981 | metabolic activity, OD at 492 nm divided by OD of control (control = 1) ([12]; 24 hrs): 0.6213 | metabolic activity, OD at 492 nm divided by OD of control (control = 1) ([12]; 48 hrs): 0.9143 | metabolic activity, OD at 492 nm divided by OD of control (control = 1) ([13]; 24 hrs): 1.0430 | metabolic activity, OD at 492 nm divided by OD of control (control = 1) ([13]; 48 hrs): 1.0832 | metabolic activity, OD at 492 nm divided by OD of control (control = 1) ([14]; 24 hrs): 1.0625 | metabolic activity, OD at 492 nm divided by OD of control (control = 1) ([14]; 48 hrs): 1.0988 | metabolic activity, OD at 492 nm divided by OD of control (control = 1) ([15]; 24 hrs): 0.9131 | metabolic activity, OD at 492 nm divided by OD of control (control = 1) ([15]; 48 hrs): 0.8299 | metabolic activity, OD at 492 nm divided by OD of control (control = 1) ([16]; 24 hrs): 1.1010 | metabolic activity, OD at 492 nm divided by OD of control (control = 1) ([16]; 48 hrs): 1.0362
